Several values for one entry are separate records, joined by “and”; a condition that tells them apart may be missing. Equal entries are not always repeated. Inconclusive results and toxic doses are left out. No stated cut-off is given here; in the data, active means T/C of 150% or more; inactive means T/C below 125%.
System: L1210 leukemia ip in BDF1 mice, survival T/C
Experiment: NCI In Vivo Anticancer Drug Screen. Data for tumor model L1210 Leukemia (intraperitoneal) in B6D2F1 (BDF1) mice
Details: endpoint: mean survival time, higher = longer survival
Outline: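 Read-out is survival time, reported as the treated-group measurement over the vehicle-control measurement.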

[1] = dose: 100.0 mg/kg/injection, schedule: Q01DX009 (ip), vehicle: saline with Tween-80
[2] = dose: 100.0 mg/kg/injection, schedule: Q04DX003 (ip), vehicle: saline with Tween-80
[3] = dose: 200.0 mg/kg/injection, schedule: Q01DX009 (ip), vehicle: saline with Tween-80
[4] = dose: 200.0 mg/kg/injection, schedule: Q04DX003 (ip), vehicle: saline with Tween-80
[5] = dose: 400.0 mg/kg/injection, schedule: Q01DX009 (ip), vehicle: saline with Tween-80
[6] = dose: 400.0 mg/kg/injection, schedule: Q04DX003 (ip), vehicle: saline with Tween-80
[7] = dose: 100.0 mg/kg/injection, schedule: Q04DX003 (ip), vehicle: saline
[8] = dose: 200.0 mg/kg/injection, schedule: Q04DX003 (ip), vehicle: saline
[9] = dose: 400.0 mg/kg/injection, schedule: Q04DX003 (ip), vehicle: saline
[10] = dose: 400.0 mg/kg/injection, schedule: Q01DX001 (ip), vehicle: carboxymethylcellulose (CMC)
[11] = dose: 100.0 mg/kg/injection, schedule: Q04DX002 (ip), vehicle: gum acacia
[12] = dose: 200.0 mg/kg/injection, schedule: Q04DX002 (ip), vehicle: gum acacia
[13] = dose: 400.0 mg/kg/injection, schedule: Q04DX002 (ip), vehicle: gum acacia
[14] = dose: 25.0 mg/kg/injection, schedule: Q04DX002 (ip), vehicle: Klucel (hydroxypropylcellulose) (HPC)
[15] = dose: 50.0 mg/kg/injection, schedule: Q04DX002 (ip), vehicle: Klucel (hydroxypropylcellulose) (HPC)
[16] = dose: 100.0 mg/kg/injection, schedule: Q04DX002 (ip), vehicle: Klucel (hydroxypropylcellulose) (HPC)
[17] = dose: 100.0 mg/kg/injection, schedule: Q01DX009 (ip), vehicle: Klucel (hydroxypropylcellulose) (HPC)
[18] = dose: 200.0 mg/kg/injection, schedule: Q01DX009 (ip), vehicle: Klucel (hydroxypropylcellulose) (HPC)
[19] = dose: 100.0 mg/kg/injection, schedule: Q01DX001 (ip), vehicle: carboxymethylcellulose (CMC)
[20] = dose: 200.0 mg/kg/injection, schedule: Q01DX001 (ip), vehicle: carboxymethylcellulose (CMC)
[21] = dose: 50.0 mg/kg/injection, schedule: Q01DX009 (ip), vehicle: saline with Tween-80

Measured: T/C

O=C(/C=C/c1ccccc1)NC(=S)Nc1cc(C(F)(F)F)ccc1Cl
inactive: dose: 100.0 mg/kg/injection, schedule: Q01DX001 (ip), vehicle: saline with Tween-80 103 % of control | [1] 92 % of control and 86 % of control | dose: 100.0 mg/kg/injection, schedule: Q04DX002 (ip), vehicle: saline with Tween-80 98 % of control and 90 % of control | [2] 100 % of control | dose: 200.0 mg/kg/injection, schedule: Q01DX001 (ip), vehicle: saline with Tween-80 95 % of control | [3] 92 % of control and 90 % of control | dose: 200.0 mg/kg/injection, schedule: Q04DX002 (ip), vehicle: saline with Tween-80 93 % of control and 114 % of control | [4] 94 % of control | dose: 400.0 mg/kg/injection, schedule: Q01DX001 (ip), vehicle: saline with Tween-80 101 % of control | [5] 95 % of control and 89 % of control | dose: 400.0 mg/kg/injection, schedule: Q04DX002 (ip), vehicle: saline with Tween-80 95 % of control and 101 % of control

O=C(NCCCCOc1ccc([N+](=O)[O-])cc1Cl)c1ccc(S(=O)(=O)F)cc1
inactive: [1] 93 % of control | [2] 92 % of control | [3] 93 % of control | [4] 93 % of control | [5] 100 % of control | [6] 111 % of control

COC(CN(C)C(=O)NC1CCCCC1)OC
inactive: [1] 102 % of control | [3] 100 % of control

N#C/C(=C\c1cc(Cl)cc(Cl)c1O)C(/C(C#N)=C/c1cc(Cl)cc(Cl)c1O)c1ccc2c(c1)OCO2 (stereo unspecified)
inactive: [1] 97 % of control | [7] 98 % of control | [3] 94 % of control | [4] 103 % of control | [8] 100 % of control | [5] 89 % of control | [9] 98 % of control

O=C(NC(=O)c1ccc([N+](=O)[O-])cc1)Nc1ccccc1
inactive: dose: 264.0 mg/kg/injection, schedule: Q01DX001 (ip), vehicle: carboxymethylcellulose (CMC) 92 % of control | [10] 96 % of control | dose: 600.0 mg/kg/injection, schedule: Q01DX001 (ip), vehicle: carboxymethylcellulose (CMC) 88 % of control

CN(C)c1ccc([N+](=O)[O-])cc1[N+](=O)[O-]
inactive: dose: 100.0 mg/kg/injection, schedule: Q01DX001 (ip), vehicle: other 111 % of control | dose: 200.0 mg/kg/injection, schedule: Q01DX001 (ip), vehicle: other 101 % of control

O=P(c1ccc[nH]1)(c1ccc[nH]1)c1ccc[nH]1
inactive: [11] 101 % of control | [12] 93 % of control | [13] 108 % of control

CN1CCN(C)P1N1CCCC1
inactive: dose: 100.0 mg/kg/injection, schedule: Q01DX001 (ip), vehicle: saline 89 % of control | dose: 200.0 mg/kg/injection, schedule: Q01DX001 (ip), vehicle: saline 95 % of control | dose: 400.0 mg/kg/injection, schedule: Q01DX001 (ip), vehicle: saline 93 % of control

CN1C(=O)OC(C)(C)C1=O
inactive: dose: 25.0 mg/kg/injection, schedule: Q01DX009 (ip), vehicle: saline 98 % of control | dose: 25.0 mg/kg/injection, schedule: Q04DX003 (ip), vehicle: saline 93 % of control | dose: 50.0 mg/kg/injection, schedule: Q01DX009 (ip), vehicle: saline 95 % of control | dose: 50.0 mg/kg/injection, schedule: Q04DX003 (ip), vehicle: saline 109 % of control | dose: 100.0 mg/kg/injection, schedule: Q01DX009 (ip), vehicle: saline 102 % of control | [7] 98 % of control | dose: 200.0 mg/kg/injection, schedule: Q01DX009 (ip), vehicle: saline 96 % of control | [8] 109 % of control | dose: 400.0 mg/kg/injection, schedule: Q01DX009 (ip), vehicle: saline 106 % of control | [9] 98 % of control

N=c1ccc2ccccc2n1O
inactive: dose: 6.25 mg/kg/injection, schedule: Q04DX003 (ip), vehicle: other 97 % of control | dose: 12.5 mg/kg/injection, schedule: Q04DX003 (ip), vehicle: other 95 % of control | dose: 25.0 mg/kg/injection, schedule: Q04DX003 (ip), vehicle: other 100 % of control

COC(OC)c1nc(N)nc(N)c1-c1ccc(F)cc1
inactive: [2] 94 % of control | [4] 96 % of control | [6] 96 % of control

NC(=O)C(CCC(=O)O)NC(=O)OCc1ccccc1 (stereo unspecified)
inactive: [14] 100 % of control | [15] 92 % of control | [16] 100 % of control

O=[N+]([O-])c1cc(S(=O)(=O)F)cc(Cl)c1O
inactive: [17] 97 % of control | [18] 89 % of control

COc1ccc(/C=N/n2c(=O)[nH]nc(C)c2=O)c(OC)c1OC
inactive: dose: 100.0 mg/kg/injection, schedule: Q01DX009 (ip), vehicle: acetone 96 % of control | [2] 112 % of control | dose: 200.0 mg/kg/injection, schedule: Q01DX009 (ip), vehicle: acetone 93 % of control | [4] 117 % of control | dose: 400.0 mg/kg/injection, schedule: Q01DX009 (ip), vehicle: acetone 102 % of control | [6] 109 % of control

C/C=C/C(=O)Nc1ccccc1
inactive: dose: 50.0 mg/kg/injection, schedule: Q01DX001 (ip), vehicle: carboxymethylcellulose (CMC) 97 % of control | [19] 100 % of control | [20] 113 % of control

CC(C)Nc1c(C(=O)c2ccccc2)cn(C(C)C)c1-c1ccccc1
inactive: [21] 94 % of control | [1] 91 % of control | [3] 88 % of control

CCOP(=O)(OCC)C1CC(C(C)C)CCC1C (stereo unspecified)
inactive: dose: 75.0 mg/kg/injection, schedule: Q01DX001 (ip), vehicle: other 93 % of control | dose: 150.0 mg/kg/injection, schedule: Q01DX001 (ip), vehicle: other 98 % of control | dose: 300.0 mg/kg/injection, schedule: Q01DX001 (ip), vehicle: other 110 % of control

C#CC(CC(C)CC(C)(C)C)N(C)C (stereo unspecified)
inactive: dose: 25.0 mg/kg/injection, schedule: Q01DX009 (ip), vehicle: saline with Tween-80 92 % of control | [21] 92 % of control | [1] 101 % of control

O=c1oc2ccccc2c(N2CCCCC2)c1Cl
inactive: [11] 111 % of control | [12] 104 % of control | [13] 93 % of control

O=c1[nH]c2c(N3CCOCC3)cccc2o1
inactive: [14] 93 % of control | [15] 97 % of control | [16] 97 % of control

O=C(c1ccccc1)C(Nc1ccc(Br)cc1)Nc1ccc(Br)cc1
inactive: [19] 96 % of control | [20] 102 % of control | [10] 96 % of control

O=c1oc2ccc(F)cc2c2ccccc12
inactive: dose: 100.0 mg/kg/injection, schedule: Q01DX001 (ip), vehicle: Klucel (hydroxypropylcellulose) (HPC) 92 % of control | dose: 200.0 mg/kg/injection, schedule: Q01DX001 (ip), vehicle: Klucel (hydroxypropylcellulose) (HPC) 103 % of control | dose: 400.0 mg/kg/injection, schedule: Q01DX001 (ip), vehicle: Klucel (hydroxypropylcellulose) (HPC) 90 % of control

CN=C(N/N=C/c1ccccc1)N(C)C
inactive: dose: 25.0 mg/kg/injection, schedule: Q04DX003 (ip), vehicle: Klucel (hydroxypropylcellulose) (HPC) 107 % of control | dose: 50.0 mg/kg/injection, schedule: Q04DX003 (ip), vehicle: Klucel (hydroxypropylcellulose) (HPC) 100 % of control | dose: 87.5 mg/kg/injection, schedule: Q04DX003 (ip), vehicle: Klucel (hydroxypropylcellulose) (HPC) 98 % of control

Cc1ccc(NC(=O)NCCCl)cc1NC(=O)NCCCl
inactive: dose: 50.0 mg/kg/injection, schedule: Q01DX009 (ip), vehicle: Klucel (hydroxypropylcellulose) (HPC) 106 % of control | [17] 97 % of control | dose: 100.0 mg/kg/injection, schedule: Q04DX003 (ip), vehicle: Klucel (hydroxypropylcellulose) (HPC) 94 % of control | [18] 108 % of control | dose: 200.0 mg/kg/injection, schedule: Q04DX003 (ip), vehicle: Klucel (hydroxypropylcellulose) (HPC) 95 % of control

From PubChem BioAssay AID248 (DTP/NCI, 2004)
